Source: patent US4560509A, “Antibiotic A39079 factor S-1” (Eli Lilly and Company, priority 1983, dated 1985)
Converted amounts (≈) assume the structure as drawn.

Experiments:
[1] = tested on: Klebsiella pneumoniae KAE; assay: standard agar-dilution MIC assay; type: cell-based; conditions: agar dilution; Klebsiella pneumoniae KAE; read-out: MIC
From the text: (§1) Table V summarizes the minimal inhibitory concentrations (MIC) at which factor S-1 inhibits certain organisms as determined by standard agar-dilution assays. In Table V, the activity of factor S-1 is compared with that of rifampin.

[2] = tested on: Staphylococcus epidermidis EPI1; assay: standard agar-dilution MIC assay; type: cell-based
From the text: as §1

[3] = tested on: Haemophilus influenzae C.L.; assay: standard agar-dilution MIC assay; type: cell-based
From the text: as §1

[4] = tested on: Pseudomonas aeruginosa X528; assay: standard agar-dilution MIC assay; type: cell-based; conditions: agar dilution; Pseudomonas aeruginosa X528; read-out: MIC
From the text: as §1

[5] = tested on: Staphylococcus epidermidis 222; assay: standard agar-dilution MIC assay; type: cell-based; conditions: agar dilution; Staphylococcus epidermidis 222; read-out: MIC
From the text: as §1

[6] = tested on: Escherichia coli EC14; assay: standard agar-dilution MIC assay; type: cell-based
From the text: as §1

[7] = tested on: Escherichia coli N10; assay: standard agar-dilution MIC assay; type: cell-based
From the text: as §1

[8] = tested on: Enterobacter cloacae EB5; assay: standard agar-dilution MIC assay; type: cell-based; conditions: agar dilution; Enterobacter cloacae EB5; read-out: MIC
From the text: as §1

[9] = tested on: bacteria normally present in the monogastric digestive system; assay: glucose sparing / feed-utilization efficiency in monogastric animals; conditions: statement in words
From the text: Yet another important property of factor S-1 is its ability to improve feed-utilization efficiency in monogastric animals. Commercially important monograstric animals include chickens and pigs. In addition, young ruminants, especially those still unweaned, function as monogastric animals. In the monogastric animal, bacteria and the host compete for nutrients in the digestive process. Agents which cause the bacteria to use less efficient substrates, leaving more efficient substrates such as glucose for the host animal, increase the feed-utilization efficiency of the host animal.

[10] = titration; type: physicochemical; conditions: 66% aqueous dimethylformamide
[11] = tested on: rumen flora; assay: ruminant feed-utilization activity (VFA and methane production in treated vs control flasks); type: cell-based
From the text: Animals having a developed rumen function utilize feed by first degrading the carbohydrate (the main nutritive portion) to pyruvate. The pyruvate is further metabolized to volatile fatty acid (VFA) derivatives, which include acetate, propionate and butyrate. It is known that the efficiency of carbohydrate utilization in ruminants is increased by treatments which stimulate the animals' rumen flora to produce propionate compounds rather than acetate or butyrate compounds. Feed-utilization efficiency can also be improved by inhibiting methane production. When methane gas is produced in the rumen, it is generally lost through eructation. This energy loss can be minimized by inhibiting methane formation.

## CC(=O)OC1C(C)C(O)C=COC2(C)Oc3c(C)c(O)c4c(c3C2=O)C(=O)C(C)=C(NC(=O)C=CC=CC(C)C(O)C(C)C(O)C1C)C4=O (stereo not shown) [Factor S-1]
[1]
  MIC: 16 µg/mL (≈ 23.5 µM)
[2]
  MIC: < 0.008 µg/mL
[3]
  MIC: 0.25 µg/mL (≈ 0.367 µM)
[4]
  MIC: 16 µg/mL (≈ 23.5 µM)
[5]
  MIC: < 0.008 µg/mL
[6]
  MIC: 16 µg/mL (≈ 23.5 µM)
[7]
  MIC: 8 µg/mL (≈ 11.7 µM)
[8]
  MIC: 32 µg/mL (≈ 46.9 µM)
[9]
  effect on consumption of glucose by bacteria (glucose sparing): prevents the consumption of glucose by bacteria normally present in the monogastric digestive system
[10]
  pKa: 8
[11]; dose 0.5 ppm
  Ratio of Treated to Control, Molar Percent, acetic: 1.04
  Ratio of Treated to Control, Molar Percent, butyric: 0.57
  Ratio of Treated to Control, Molar Percent, propionic: 1.29
  Ratio of Treated to Control, mMoles/Day, Total VFA: 1.18
  Ratio of Treated to Control, mMoles/Day, acetic: 1.22
  Ratio of Treated to Control, mMoles/Day, butyric: 0.67
  Ratio of Treated to Control, mMoles/Day, methane: 1.03
  Ratio of Treated to Control, mMoles/Day, propionic: 1.52
[11]; dose 1 ppm
  Ratio of Treated to Control, Molar Percent, acetic: 1.05
  Ratio of Treated to Control, Molar Percent, butyric: 0.48
  Ratio of Treated to Control, Molar Percent, propionic: 1.49
  Ratio of Treated to Control, mMoles/Day, Total VFA: 1.22
  Ratio of Treated to Control, mMoles/Day, acetic: 1.27
  Ratio of Treated to Control, mMoles/Day, butyric: 0.59
  Ratio of Treated to Control, mMoles/Day, methane: 0.98
  Ratio of Treated to Control, mMoles/Day, propionic: 1.75
[11]; dose 2 ppm
  Ratio of Treated to Control, Molar Percent, acetic: 1.08
  Ratio of Treated to Control, Molar Percent, butyric: 0.43
  Ratio of Treated to Control, Molar Percent, propionic: 1.55
  Ratio of Treated to Control, mMoles/Day, Total VFA: 1.06
  Ratio of Treated to Control, mMoles/Day, acetic: 1.15
  Ratio of Treated to Control, mMoles/Day, butyric: 0.46
  Ratio of Treated to Control, mMoles/Day, methane: 1.09
  Ratio of Treated to Control, mMoles/Day, propionic: 1.63
[11]; dose 5 ppm
  Ratio of Treated to Control, Molar Percent, acetic: 1.07
  Ratio of Treated to Control, Molar Percent, butyric: 0.62
  Ratio of Treated to Control, Molar Percent, propionic: 1.30
  Ratio of Treated to Control, mMoles/Day, Total VFA: 1.07
  Ratio of Treated to Control, mMoles/Day, acetic: 1.16
  Ratio of Treated to Control, mMoles/Day, butyric: 0.66
  Ratio of Treated to Control, mMoles/Day, methane: 0.50
  Ratio of Treated to Control, mMoles/Day, propionic: 1.39
[11]; statement in words
  feed-utilization efficiency in ruminants: improve feed-utilization efficiency in ruminants
